Reference: patent publication US9840525B2, “Crystal form of tenofovir prodrug, preparation method thereof, and method of use thereof” (Jiangsu Hansoh Pharmaceutical Group Co., Ltd., priority 2014, dated 2017)

What was measured:
Flowability Study = assay type: physicochemical
Text: The flowability of the new crystal form prepared in Examples 1, 2 and 3 of the present invention was studied.

Stability Study = assay type: physicochemical; conditions: for Appearance / Crystal Form / Product Purity: 30° C. ± 2° C./RH 65% ± 5%
Text: The stability of the new crystal form prepared by the method of Example 1 of the present invention was studied.

[1] = Determination of Absolute Bioavailability; conditions: rat, in vivo; rats, intravenous administration and oral administration

In the case of `CC(C)OC(=O)C(C)(C)N[P@](=O)(CO[C@H](C)Cn1cnc2c(N)ncnc21)Oc1ccccc1.O=C(O)/C=C/C(=O)O` [crystal form A, 9-[(R)-2-[[(S)-[[[1-(isopropoxycarbonyl)-1-methyl]ethyl]amino]phenoxyphosphinyl]methoxyl]propyl]adenine fumarate], the Flowability (Flowability Study) is reported as “good flowability”, the “Repose Angle” value (Flowability Study; listed as Example 1) is reported as 36° and the “Repose Angle” value (Flowability Study; listed as Example 2) is reported as 35°. The “Repose Angle” value (Flowability Study; listed as Example 3) was 34°, the Appearance (Stability Study; 0 month) was “off-white powder” and the “Crystal Form” value (Stability Study; 0 month) was “Crystal form A”. The “Product Purity” value (Stability Study; 0 month) was 98.97%, the Appearance (Stability Study; 3 months) was “off-white powder” and the “Crystal Form” value (Stability Study; 3 months) was “Crystal form A”. For the same molecule, the “Product Purity” value (Stability Study; 3 months) was 98.95%, the Appearance (Stability Study; 6 months) was “off-white powder” and the “Crystal Form” value (Stability Study; 6 months) was “Crystal form A”. For the same molecule, the “Product Purity” value (Stability Study; 6 months) was 98.92%, the Stability (Stability Study; room temperature) was “stable at room temperature” and the “Chemical degradation in the stability test” value (Stability Study; stability test) was “did not undergo chemical degradation”. For the same molecule, the “Crystal form transformation in the stability test” value (Stability Study; stability test) was “did not undergo transformation” and the bioavailability [1] was 81%.
